This assay deals with BRAF V600E (Homo sapiens, UniProt P15056, V600E). Kind of assay: HiBiT cellular BRAF^V600E degradation assay. In kind it is cell-based. The following applies: for DC50: concentration at which 50% of total cellular BRAF^V600E is degraded; for Emax: read-out: HiBit 24 h Emax. (HiBiT is a short tag that completes a luciferase, so light tracks the accessible tagged protein.)
[1] abbreviates: A375.10 cells, 24 h, residual protein remaining in the cell.

A word on the DC50: it is the concentration giving 50% degradation. The term Emax denotes the size of the effect at its maximum, as opposed to the concentration needed.

Read-outs that look alike come from different tables or passages of the source.

Chain of BRAF V600E (P15056 whole entry V600E): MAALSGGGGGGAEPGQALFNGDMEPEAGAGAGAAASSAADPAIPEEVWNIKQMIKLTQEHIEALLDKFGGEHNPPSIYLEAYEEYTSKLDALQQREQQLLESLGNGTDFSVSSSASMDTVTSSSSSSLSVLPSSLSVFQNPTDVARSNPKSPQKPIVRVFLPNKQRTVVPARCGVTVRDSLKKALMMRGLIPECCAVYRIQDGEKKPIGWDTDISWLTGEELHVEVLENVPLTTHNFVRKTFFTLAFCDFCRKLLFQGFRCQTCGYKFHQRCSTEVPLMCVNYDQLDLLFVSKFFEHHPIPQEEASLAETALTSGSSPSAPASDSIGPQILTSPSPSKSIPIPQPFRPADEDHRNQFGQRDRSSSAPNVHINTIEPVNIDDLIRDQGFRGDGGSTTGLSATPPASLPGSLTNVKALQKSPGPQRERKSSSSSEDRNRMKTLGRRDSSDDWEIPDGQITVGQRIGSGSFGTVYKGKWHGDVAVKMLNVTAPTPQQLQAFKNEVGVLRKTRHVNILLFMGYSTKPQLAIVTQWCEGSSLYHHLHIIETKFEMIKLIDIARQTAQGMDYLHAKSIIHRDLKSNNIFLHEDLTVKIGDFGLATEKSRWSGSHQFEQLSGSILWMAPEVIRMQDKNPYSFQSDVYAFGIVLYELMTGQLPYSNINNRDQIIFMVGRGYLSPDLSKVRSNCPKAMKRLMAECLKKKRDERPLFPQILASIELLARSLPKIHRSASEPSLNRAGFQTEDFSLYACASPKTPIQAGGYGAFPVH

For the setting “A375.10 cells, 24 h”, `CCN(C)S(=O)(=O)Nc1ccc(F)c(Oc2ccc3ncn(-c4cnc(N5CCN(C(=O)CN6CCC(c7ccc(NC8CCC(=O)NC8=O)cc7F)CC6)CC5)nc4)c(=O)c3c2F)c1C#N` (stereo not shown) [Example 86, 6-[2-cyano-3-[[ethyl(methyl)sulfamoyl]amino]-6-fluorophenoxy]-3-[2-[4-[2-[4-[4-[(2,6-dioxopiperidin-3-yl)amino]-2-fluorophenyl]piperidin-1-yl]acetyl]piperazin-1-yl]pyrimidin-5-yl]-5-fluoro-4-oxoquinazoline] displayed a DC50 of 8.28 nM. The Emax under setting [1] stood at 12.9%.
Regarding `CCN(C)S(=O)(=O)Nc1ccc(F)c(Oc2ccc3ncn(-c4cnc(N5CCN(C(=O)CN6CCC(c7ccc(NC8CCC(=O)NC8=O)cc7F)CC6)CC5)nc4)c(=O)c3c2)c1C#N` (stereo not shown) [Example 84, 6-[2-cyano-3-[[ethyl(methyl)sulfamoyl]amino]-6-fluorophenoxy]-3-[2-[4-[2-[4-[4-[(2,6-dioxopiperidin-3-yl)amino]-2-fluorophenyl]piperidin-1-yl]acetyl]piperazin-1-yl]pyrimidin-5-yl]-4-oxoquinazoline], where the note is “A375.10 cells, 24 h”, it took 9.97 nM to reach half-maximal degradation (DC50). The Emax under setting [1] amounted to 9.26%.
Where the note is “A375.10 cells, 24 h”, `N#Cc1c(NS(=O)(=O)N2C[C@H]3C[C@H]3C2)ccc(F)c1Oc1ccc2ncn(-c3cnc(N4CCN(C(=O)CN5CCC(c6ccc(N[C@H]7CCC(=O)NC7=O)cc6F)CC5)CC4)nc3)c(=O)c2c1` [Example 128, (1S,5R)—N-[2-cyano-3-[3-[2-[4-[2-[4-[4-[[(3S)-2,6-dioxopiperidin-3-yl]amino]-2-fluorophenyl]piperidin-1-yl]acetyl]piperazin-1-yl]pyrimidin-5-yl]-4-oxoquinazolin-6-yl]oxy-4-fluorophenyl]-3-azabicyclo[3.1.0]hexane-3-sulfonamide] yielded a DC50 of 19.5 nM. Further, the maximum response (Emax) under setting [1] was 9.91%.
For `CN(CCF)S(=O)(=O)Nc1ccc(F)c(Oc2ccc3ncn(-c4cnc(N5CCN(C(=O)CN6CCC(c7ccc(N[C@H]8CCC(=O)NC8=O)cc7F)CC6)CC5)nc4)c(=O)c3c2)c1C#N` [Example 121, 6-[2-cyano-6-fluoro-3-[[2-fluoroethyl(methyl)sulfamoyl]amino]phenoxy]-3-[2-[4-[2-[4-[4-[[(3S)-2,6-dioxopiperidin-3-yl]amino]-2-fluorophenyl]piperidin-1-yl]acetyl]piperazin-1-yl]pyrimidin-5-yl]-4-oxoquinazoline], under “A375.10 cells, 24 h”, half-maximal degradation (DC50) was put at 14.6 nM. In addition, the Emax under setting [1] is 7.8%.
With `CCN(C)S(=O)(=O)Nc1ccc(F)c(Oc2ccc3ncn(-c4cnc(N5CCN(C(=O)CN6CCC(c7cc(OC)c(NC8CCC(=O)NC8=O)cc7F)CC6)CC5)nc4)c(=O)c3c2)c1C#N` (stereo not shown) [Example 88, 6-[2-cyano-3-[[ethyl(methyl)sulfamoyl]amino]-6-fluorophenoxy]-3-[2-[4-[2-[4-[4-[(2,6-dioxopiperidin-3-yl)amino]-2-fluoro-5-methoxyphenyl]piperidin-1-yl]acetyl]piperazin-1-yl]pyrimidin-5-yl]-4-oxoquinazoline], the maximal effect (Emax) stood at 9.01%. Besides, under “A375.10 cells, 24 h”, it took 15.1 nM to reach half-maximal degradation (DC50).
Taken in the same sequence, the figures for `CCN(C)S(=O)(=O)Nc1ccc(F)c(Oc2ccc3ncn([C@H]4COC5(CCN(C(=O)CN6CCC(c7ccc(NC8CCC(=O)NC8=O)c(F)c7)CC6)CC5)C4)c(=O)c3c2)c1C#N` (stereo partly drawn) [Example 54, (3R)-3-[6-[2-cyano-3-[[ethyl(methyl)sulfamoyl]amino]-6-fluorophenoxy]-4-oxoquinazolin-3-yl]-8-[2-[4-[4-[(2,6-dioxopiperidin-3-yl)amino]-3-fluorophenyl]piperidin-1-yl]acetyl]-1-oxa-8-azaspiro[4.5]decane] were 12.1% and 15.4 nM.
The compound `CCN(C)S(=O)(=O)Nc1ccc(F)c(Oc2ccc3ncn(C4CC5(CCN(C(=O)[C@H]6C[C@H](N7CC(c8ccc(NC9CCC(=O)NC9=O)cc8F)C7)C6)CC5)C4)c(=O)c3c2)c1C#N` (stereo partly shown) [Example 39, 6-[2-cyano-3-[[ethyl(methyl)sulfamoyl]amino]-6-fluorophenoxy]-3-[7-[3-[3-[4-[(2,6-dioxopiperidin-3-yl)amino]-2-fluorophenyl]azetidin-1-yl]cyclobutanecarbonyl]-7-azaspiro[3.5]nonan-2-yl]-4-oxoquinazoline] showed a DC50 (A375.10 cells, 24 h) of 27.5 nM. In addition, under setting [1], the maximal effect (Emax) worked out at 15.7%.
As to `CCN(C)S(=O)(=O)Nc1ccc(F)c(Oc2ccc3ncn(C4COC5(CCN(C(=O)NC6CCN(c7ccc(NC8CCC(=O)NC8=O)cc7F)CC6)CC5)C4)c(=O)c3c2)c1C#N` (stereo not shown) [Example 38, 3-[6-[2-cyano-3-[[ethyl(methyl)sulfamoyl]amino]-6-fluorophenoxy]-4-oxoquinazolin-3-yl]-N-[1-[4-[(2,6-dioxopiperidin-3-yl)amino]-2-fluorophenyl]piperidin-4-yl]-1-oxa-8-azaspiro[4.5]decane-8-carboxamide], the Emax came out at 11.4%. Under “A375.10 cells, 24 h”, this compound gave a DC50 of 36 nM.
Turning to `CCN(C)S(=O)(=O)Nc1ccc(F)c(Oc2ccc3ncn([C@H]4CCC5(CCN(C(=O)CN6CCN(c7cc8c(cc7F)c(N7CCC(=O)NC7=O)nn8C)CC6)CC5)C4)c(=O)c3c2)c1C#N` [Example 162, 6-[2-cyano-3-[[ethyl(methyl)sulfamoyl]amino]-6-fluorophenoxy]-3-[(3S)-8-[2-[4-[3-(2,4-dioxo-1,3-diazinan-1-yl)-5-fluoro-1-methylindazol-6-yl]piperazin-1-yl]acetyl]-8-azaspiro [4.5]decan-3-yl]-4-oxoquinazoline], the DC50 (A375.10 cells, 24 h) is 17.3 nM. Further, the Emax under setting [1] was 14.5%.
As to `CCN(C)S(=O)(=O)Nc1ccc(F)c(Oc2ccc3ncc([C@H]4COC5(CCN(C(=O)CN6CCC(c7ccc(NC8CCC(=O)NC8=O)cc7F)CC6)CC5)C4)nc3c2)c1C#N` (stereo partly drawn) [Example 224, (3S)-3-[7-[2-cyano-3-[[ethyl(methyl)sulfamoyl]amino]-6-fluorophenoxy]quinoxalin-2-yl]-8-[2-[4-[4-[(2,6-dioxopiperidin-3-yl)amino]-2-fluorophenyl]piperidin-1-yl]acetyl]-1-oxa-8-azaspiro[4.5]decane], half-maximal degradation (A375.10 cells, 24 h) (DC50) was put at 22.9 nM. In addition, under setting [1], the Emax is 9.09%.
On the same counts, the results for `CCN(C)S(=O)(=O)Nc1ccc(F)c(Oc2ccc3ncn(-c4cnc(N5CCN(C(=O)CN6CCC(c7ccc(N[C@@H]8CCC(=O)NC8=O)cc7F)CC6)CC5)nc4)c(=O)c3c2N)c1C#N` [Example 101, 5-amino-6-[2-cyano-3-[[ethyl(methyl)sulfamoyl]amino]-6-fluorophenoxy]-3-[2-[4-[2-[4-[4-[[(3R)-2,6-dioxopiperidin-3-yl]amino]-2-fluorophenyl]piperidin-1-yl]acetyl]piperazin-1-yl]pyrimidin-5-yl]-4-oxoquinazoline] are 27.7 nM and 11.6%.
On the same counts, the results for `COC1CCN(S(=O)(=O)Nc2ccc(F)c(Oc3ccc4ncn([C@H]5COC6(CCN(C(=O)CC7(O)CCN(c8cc9c(cc8F)c(N8CCC(=O)NC8=O)nn9C)CC7)CC6)C5)c(=O)c4c3)c2C#N)C1` (stereo partly drawn) [Example 175, N-[2-cyano-3-[3-[(3R)-8-[2-[1-[3-(2,4-dioxo-1,3-diazinan-1-yl)-5-fluoro-1-methylindazol-6-yl]-4-hydroxypiperidin-4-yl]acetyl]-1-oxa-8-azaspiro[4.5]decan-3-yl]-4-oxoquinazolin-6-yl]oxy-4-fluorophenyl]-3-methoxypyrrolidine-1-sulfonamide] are 31.2 nM and 31.1%.
Taken in the same sequence, the figures for `CCN(C)S(=O)(=O)Nc1ccc(F)c(Oc2ccc3ncn(C4CC5(CCN(C(=O)CC6(O)CCN(c7ccc(NC8CCC(=O)NC8=O)cc7F)CC6)CC5)C4)c(=O)c3c2)c1C#N` (stereo not shown) [Example 23, 6-[2-cyano-3-[[ethyl(methyl)sulfamoyl]amino]-6-fluorophenoxy]-3-[7-[2-[1-[4-[(2,6-dioxopiperidin-3-yl)amino]-2-fluorophenyl]-4-hydroxypiperidin-4-yl]acetyl]-7-azaspiro [3.5]nonan-2-yl]-4-oxoquinazoline] were 19.3 nM and 21.7%.
`CCN(C)S(=O)(=O)Nc1ccc(F)c(Oc2ccc3ncn(CCC4(F)CCN(C(=O)CN5CCC(c6ccc(NC7CCC(=O)NC7=O)cc6F)CC5)CC4)c(=O)c3c2)c1C#N` (stereo not shown) [Example 13, 6-[2-cyano-3-[[ethyl(methyl)sulfamoyl]amino]-6-fluorophenoxy]-3-[2-[1-[2-[4-[4-[(2,6-dioxopiperidin-3-yl)amino]-2-fluorophenyl]piperidin-1-yl]acetyl]-4-fluoropiperidin-4-yl]ethyl]-4-oxoquinazoline] gave a DC50 (A375.10 cells, 24 h) of 26.2 nM. Also, the Emax under setting [1] turned out to be 8.27%.
Regarding `CCN(C)S(=O)(=O)Nc1ccc(F)c(Oc2ccc3ncn(C4CCC5(CC4)CCN(C(=O)CN4CCN(c6cc7c(cc6F)c(N6CCC(=O)NC6=O)nn7C)CC4)CC5)c(=O)c3c2)c1C#N` [Example 163, 9-[6-[2-cyano-3-[[ethyl(methyl)sulfamoyl]amino]-6-fluorophenoxy]-4-oxoquinazolin-3-yl]-3-[2-[4-[3-(2,4-dioxo-1,3-diazinan-1-yl)-5-fluoro-1-methylindazol-6-yl]piperazin-1-yl]acetyl]-3-azaspiro[5.5]undecane], the half-maximal degradation concentration (DC50) (A375.10 cells, 24 h) amounted to 27.6 nM. Moreover, the Emax under setting [1] was determined as 16.2%.
Under “A375.10 cells, 24 h”, `CCN(C)S(=O)(=O)Nc1ccc(F)c(Oc2ccc3ncn(C4CCC5(CCN(C(=O)CN6CCC(c7ccc(NC8CCC(=O)NC8=O)cc7F)CC6)CC5)C4)c(=O)c3c2Cl)c1C#N` (stereo not shown) [Example 70, 5-chloro-6-[2-cyano-3-[[ethyl(methyl)sulfamoyl]amino]-6-fluorophenoxy]-3-[8-[2-[4-[4-[(2,6-dioxopiperidin-3-yl)amino]-2-fluorophenyl]piperidin-1-yl]acetyl]-8-azaspiro[4.5]decan-3-yl]-4-oxoquinazoline] came in with a half-maximal degradation concentration (DC50) of 27.7 nM. Under setting [1], the maximal response (Emax) came out at 10.7%.
For the compound `CCN(C)S(=O)(=O)Nc1ccc(F)c(Oc2ccc3ncn(C4COC5(CCN(C(=O)CN6CCC(c7ccc(NC8CCC(=O)NC8=O)cc7F)CC6)CC5)C4)c(=O)c3c2)c1C#N` (stereo not shown) [Example 24, 3-[6-[2-cyano-3-[[ethyl(methyl)sulfamoyl]amino]-6-fluorophenoxy]-4-oxoquinazolin-3-yl]-8-[2-[4-[4-[(2,6-dioxopiperidin-3-yl)amino]-2-fluorophenyl]piperidin-1-yl]acetyl]-1-oxa-8-azaspiro[4.5]decane], the DC50 (A375.10 cells, 24 h) was 19.5 nM. The maximal effect (Emax) under setting [1] came to 10.8%.

The record behind these values is patent US12486253B2, “Therapeutics for the degradation of mutant BRAF” (C4 THERAPEUTICS, INC., priority 2021, dated 2025).
